From US5877334A, “Intermediates useful in solid phase synthesis method” (Abbott Laboratories, priority 1996, dated 1999)

These molecules were tested against HIV1 protease (Human immunodeficiency virus type 1 group M subtype B, UniProt P04585) (assay: inhibition of HIV1 protease). Details: A. Mono-ol (X = H); read-out: IC50 against HIV1 protease, A. Mono-ol (X = H).
Assay type: biochemical
Protocol: ^a The IC50 against HIV1 protease was measured according to the
method described in U.S. Pat. No. 5,354,866, issued October 11, 1994.

Row | IC50 | Structure (SMILES)
1 | < 1 nM | CC(C)[C@H](NC(=O)Cc1csc(N)n1)C(=O)N[C@@H](Cc1ccccc1)C[C@H](O)[C@H](Cc1ccccc1)NC(=O)[C@@H](NC(=O)Cc1csc(N)n1)C(C)C [Example 8A]
2 | < 1 nM | CC(C)[C@H](NC(=O)CSc1ncccn1)C(=O)N[C@@H](Cc1ccccc1)C[C@H](O)[C@H](Cc1ccccc1)NC(=O)[C@@H](NC(=O)CSc1ncccn1)C(C)C [Example 10A]
3 | < 1 nM | CC(C)[C@H](NC(=O)CC1NC(=O)NC1=O)C(=O)N[C@@H](Cc1ccccc1)C[C@H](O)[C@H](Cc1ccccc1)NC(=O)[C@@H](NC(=O)CC1NC(=O)NC1=O)C(C)C (stereo partly shown) [Example 7A]
4 | < 1 nM | COc1cc(CC(=O)N[C@H](C(=O)N[C@@H](Cc2ccccc2)C[C@H](O)[C@H](Cc2ccccc2)NC(=O)[C@@H](NC(=O)Cc2cc(OC)c(OC)c(OC)c2)C(C)C)C(C)C)cc(OC)c1OC [Example 9A]
